In ChEMBL document CHEMBL6087483 (J Med Chem, 2025):

What was measured:
Assay type in all cases: functional
HCT-116 [1] = experiment: Antiproliferative activity against MTAP deleted human HCT-116 cells assessed as inhibition of cell viability by luminescence based cell titer-glo assay
[2] = Selectivity ratio of IC50 for antiproliferative activity against MTAP wild type human HCT-116 cells to IC50 for antiproliferative activity against MTAP deleted human HCT-116 cells
HCT-116 [3] = experiment: Antiproliferative activity against MTAP wild type human HCT-116 cells assessed as inhibition of cell viability by luminescence based cell titer-glo assay

IC50 (HCT-116 [1]) [nM]	IC50 (HCT-116 [3]) [nM]	SMILES	Ratio IC50 [2]
95	7820	CN(C(=O)c1ccc2nc(N)c3c(c2c1)COC3)[C@@H]1CCN(c2ccc(C#N)cc2)C1	82
> 10000	–	CN(C(=O)c1ccc2nc(N)c3c(c2c1)COC3)[C@@H]1CCCN(c2ccccc2)C1	–
1590	–	CN(C(=O)c1ccc2nc(N)c3c(c2c1)COC3)C1CN(c2ccccc2)C1	–
1020	–	CN(C(=O)c1ccc2nc(N)c3c(c2c1)COC3)[C@@H]1CCN(c2ccccc2)C1	–
317	6620	CN(C(=O)c1ccc2nc(N)c3c(c2c1)COC3)[C@@H]1CCN(c2cccc(C#N)c2)C1	–
3680	–	N#Cc1cccc(N2C[C@@H]3C[C@H]2CN3C(=O)c2ccc3nc(N)c4c(c3c2)COC4)c1	–

The next lines start with the compound.

SMILES	IC50 (HCT-116 [1]) [nM]	IC50 (HCT-116 [3]) [nM]	Ratio IC50 [2]
CN(C(=O)c1ccc2nc(N)c3c(c2c1)COC3)[C@@H]1CCN(c2ccc(C(F)(F)F)cc2)C1	1090	> 10000	–
Cn1ncc(-c2ccc3c(=O)[nH]nc(CN)c3c2)c1-c1c(F)c(Cl)cc(OC2CC2)c1C#N	–	–	73
Cc1cc(NC(=O)C(=O)N2C[C@@H](C)CC[C@@H]2c2ccc3scnc3c2)cnc1N	–	–	13
CN(C(=O)c1ccc2nc(N)c3c(c2c1)COC3)[C@@H]1CCN(c2ccc3cnn(C)c3c2)C1	313	630	–
Cc1cc2cc(C(=O)N(Cc3ccc(C(F)(F)F)cn3)C(C)c3ncccn3)ccc2nc1N (configuration not stated)	–	–	31
Nc1nc2cnc(C(=O)N3CCOC[C@@H]3c3ccc(C(F)(F)F)cc3)cc2c2c1COC2	–	–	66
